According to the NIST ThermoML archive (doi:10.1021/je700260f):

Conditions: 283.14 K, Liquid, Vibrating tube method

FC(C(F)(F)F)C(F)(F)F [1,1,1,2,3,3,3-heptafluoropropane]
Conditions | mass density [kg/m3]
13521 kPa | 1512.6
13550 kPa | 1512.5
13594 kPa | 1512.8
13629 kPa | 1513
13672 kPa | 1513.2
13707 kPa | 1513.2
13754 kPa | 1513.5
13783 kPa | 1513.6
13814 kPa | 1513.7
13848 kPa | 1513.7
13878 kPa | 1513.9
13913 kPa | 1514.1
13943 kPa | 1514.1
13983 kPa | 1514.3
14013 kPa | 1514.5
14057 kPa | 1514.7
14086 kPa | 1514.9
14121 kPa | 1514.9
14157 kPa | 1515.1
14187 kPa | 1515.1
14217 kPa | 1515.2
14261 kPa | 1515.5
14304 kPa | 1515.6
14343 kPa | 1515.8
14377 kPa | 1515.8
14406 kPa | 1516.1
14435 kPa | 1516.1
14464 kPa | 1516.2
14504 kPa | 1516.4
14534 kPa | 1516.3
14580 kPa | 1516.6
15750 kPa | 1521.1
15778 kPa | 1521.3
15811 kPa | 1521.3
15838 kPa | 1521.3
15867 kPa | 1521.5
15896 kPa | 1521.5
15929 kPa | 1521.8
15966 kPa | 1521.9
15994 kPa | 1521.8
16031 kPa | 1522
16054 kPa | 1522.2
16198 kPa | 1522.7
16235 kPa | 1522.8
16269 kPa | 1522.9
16306 kPa | 1523.1
16339 kPa | 1523.3
16372 kPa | 1523.4
16405 kPa | 1523.5
16433 kPa | 1523.7
16471 kPa | 1523.7
16499 kPa | 1523.9
16541 kPa | 1523.9
16574 kPa | 1524.1
16649 kPa | 1524.3
16739 kPa | 1524.6
16776 kPa | 1524.8
16803 kPa | 1525
16836 kPa | 1525
16864 kPa | 1525.1
16892 kPa | 1525.2
16935 kPa | 1525.3
16967 kPa | 1525.6
17015 kPa | 1525.7
17055 kPa | 1525.8
17079 kPa | 1525.9
17116 kPa | 1526
17145 kPa | 1526.1
17173 kPa | 1526.2
17206 kPa | 1526.4
17248 kPa | 1526.5
17271 kPa | 1526.5
17304 kPa | 1526.7
17332 kPa | 1526.8
17370 kPa | 1527
17413 kPa | 1527.2
17622 kPa | 1527.9
17656 kPa | 1528.1
17691 kPa | 1528.1
17729 kPa | 1528.3
17758 kPa | 1528.4
17786 kPa | 1528.5
17820 kPa | 1528.6
17850 kPa | 1528.6
17893 kPa | 1528.8
17922 kPa | 1529
17961 kPa | 1529
18006 kPa | 1529.3
18060 kPa | 1529.4
18090 kPa | 1529.5
18129 kPa | 1529.6
18164 kPa | 1529.7
18194 kPa | 1529.9
18233 kPa | 1530
18274 kPa | 1530
18312 kPa | 1530.2
18389 kPa | 1530.5
18616 kPa | 1531.3
18645 kPa | 1531.6
18675 kPa | 1531.4
18719 kPa | 1531.7
18754 kPa | 1531.8
